Experiments:
velvetleaf = assay: Test Example 2: soil application on the day after sowing, growth inhibition rate, velvetleaf; type: in vivo, Abutilon theophrasti MEDIC.; details: 250 g/ha active ingredient, observed on 19th to 24th day
Procedure, shortened: (§1)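 Upland soil pots sown with crop and weed seeds; next day wettable powder or emulsifiable concentrate at prescribed active-ingredient amounts, diluted to 500 L/ha water, sprayed onto soil. Growth inhibition scored visually 19–24 days later, 0 (as untreated) to 100% (complete kill).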

prickly sida = assay: Test Example 2: soil application on the day after sowing, growth inhibition rate, prickly sida; type: in vivo, Sida spinosa L.; details: 250 g/ha active ingredient, observed on 19th to 24th day
Procedure, shortened: as §1

wheat = assay: Test Example 2: soil application on the day after sowing, growth inhibition rate, wheat; type: in vivo, Triticum spp.; details: 250 g/ha active ingredient, observed on 19th to 24th day
Text: Upland field soil was put into a 1/170,000 hectare pot, and seeds of various plants (barnyardgrass, crabgrass, greenfoxtail, redroot pigweed, prickly sida, velvetleaf, rice, wheat, corn and soybean) were sown. On the day after sowing, wettable powders or emulsifiable concentrates of the compounds of the present invention prepared in accordance with a conventional preparation method, were weighed so that the active ingredients became the prescribed amounts, and diluted with water in an amount corresponding to 500 liter per 1 hectare, followed by soil application with a small sprayer. On the 19th to 24th day after the application, the state of growth of the respective plants was visually observed, and the herbicidal effect was evaluated in accordance with a growth inhibition rate (%) of from 0 (equivalent to the non-treated area) to 100% (complete kill).

redroot pigweed = assay: Test Example 2: soil application on the day after sowing, growth inhibition rate, redroot pigweed; type: in vivo, Amaranthus retroflexus L.; details: 250 g/ha active ingredient, observed on 19th to 24th day
Procedure, shortened: as §1

wheat (Triticum spp.) = assay: Test Example 1: foliar treatment, growth inhibition rate, wheat; type: in vivo; details: 31 g/ha active ingredient, visually observed 17th to 23rd day after application
Procedure, shortened: (§2)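 Visual growth inhibition rating, 0% (as untreated) to 100% (complete kill), taken 17–23 d after foliar spray. Compound was formulated as wettable powder or EC, diluted to 500 L/ha water with 0.1 vol % agricultural spreader, and applied to pot-grown seedlings of corn (2.0–3.5 leaf), greenfoxtail (1.0–3.0), rice (1.0–2.5) and wheat (1.7–3.4).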

[1] = test system: crabgrass (Digitaria sanguinalis L.); assay: Test Example 1: foliar treatment, growth inhibition rate, crabgrass; type: in vivo; details: 31 g/ha active ingredient, visually observed 17th to 23rd day after application
Procedure, shortened: (§3)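 Visual scoring of growth inhibition, 0% (untreated) to 100% (complete kill), on days 17–23 following post-emergence spray of formulated compound in water (500 L/ha, 0.1 vol % spreader); plants treated at set leaf stages, e.g. corn 2.0–3.5, wheat 1.7–3.4.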

corn = assay: Test Example 2: soil application on the day after sowing, growth inhibition rate, corn; type: in vivo, Zea mays L.; details: 250 g/ha active ingredient, observed on 19th to 24th day
Procedure, shortened: as §1

corn (Zea mays L.) = assay: Test Example 1: foliar treatment, growth inhibition rate, corn; type: in vivo; details: 31 g/ha active ingredient, visually observed 17th to 23rd day after application
Procedure, shortened: as §2

[2] = test system: greenfoxtail (Setaria viridis L.); assay: Test Example 1: foliar treatment, growth inhibition rate, greenfoxtail; type: in vivo; details: 31 g/ha active ingredient, visually observed 17th to 23rd day after application
Procedure, shortened: as §2

barnyardgrass = assay: Test Example 2: soil application on the day after sowing, growth inhibition rate, barnyardgrass; type: in vivo, Echinochloa crus-galli L.; details: 250 g/ha active ingredient, observed on 19th to 24th day
Procedure, shortened: as §1

greenfoxtail = assay: Test Example 2: soil application on the day after sowing, growth inhibition rate, greenfoxtail; type: in vivo, Setaria viridis L.; details: 250 g/ha active ingredient, observed on 19th to 24th day
Procedure, shortened: as §1

rice = assay: Test Example 2: soil application on the day after sowing, growth inhibition rate, rice; type: in vivo, Oryza sativa L.; details: 250 g/ha active ingredient, observed on 19th to 24th day
Procedure, shortened: as §1

[3] = test system: barnyardgrass (Echinochloa crus-galli L.); assay: Test Example 1: foliar treatment, growth inhibition rate, barnyardgrass; type: in vivo; details: 31 g/ha active ingredient, visually observed 17th to 23rd day after application
Procedure, shortened: (§4)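 Post-emergence foliar spray, pot test; WP/EC formulation in water at 500 L/ha, + 0.1 vol % spreader; leaf stage at treatment: corn 2.0–3.5, green foxtail 1.0–3.0, rice 1.0–2.5, wheat 1.7–3.4; visual % inhibition at 17–23 DAT (0 = untreated, 100 = dead).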

[4] = test system: redroot pigweed (Amaranthus retroflexus L.); assay: Test Example 1: foliar treatment, growth inhibition rate, redroot pigweed; type: in vivo; details: 31 g/ha active ingredient, visually observed 17th to 23rd day after application
Procedure, shortened: as §3

crabgrass = assay: Test Example 2: soil application on the day after sowing, growth inhibition rate, crabgrass; type: in vivo, Digitaria sanguinalis L.; details: 250 g/ha active ingredient, observed on 19th to 24th day
Procedure, shortened: as §1

rice (Oryza sativa L.) = assay: Test Example 1: foliar treatment, growth inhibition rate, rice; type: in vivo; details: 31 g/ha active ingredient, visually observed 17th to 23rd day after application
Procedure, shortened: as §2

[5] = test system: prickly sida (Sida spinosa L.); assay: Test Example 1: foliar treatment, growth inhibition rate, prickly sida; type: in vivo; details: 31 g/ha active ingredient, visually observed 17th to 23rd day after application
Procedure, shortened: as §3

[6] = test system: velvetleaf (Abutilon theophrasti MEDIC.); assay: Test Example 1: foliar treatment, growth inhibition rate, velvetleaf; type: in vivo; details: 31 g/ha active ingredient, visually observed 17th to 23rd day after application
Procedure, shortened: as §4

soybean = assay: Test Example 2: soil application on the day after sowing, growth inhibition rate, soybean; type: in vivo, Glycine max Merr.; details: 250 g/ha active ingredient, observed on 19th to 24th day
Procedure, shortened: as §1

[7] = test system: soybean (Glycine max Merr.); assay: Test Example 1: foliar treatment, growth inhibition rate, soybean; type: in vivo; details: 31 g/ha active ingredient, visually observed 17th to 23rd day after application
Procedure, shortened: as §3

SMILES | Growth inhibition rate (%) Velvetleaf (velvetleaf) | Growth inhibition rate (%) Prickly sida (prickly sida) | Growth inhibition rate (%) Wheat (wheat) | Growth inhibition rate (%) redroot pigweed (redroot pigweed) | Growth inhibition rate (%) Wheat (wheat (Triticum spp.)) | Growth inhibition rate (%) Crabgrass [1] | Growth inhibition rate (%) Corn (corn) | Growth inhibition rate (%) Corn (corn (Zea mays L.)) | Growth inhibition rate (%) Greenfoxtail [2] | Growth inhibition rate (%) Barnyardgrass (barnyardgrass) | Growth inhibition rate (%) Greenfoxtail (greenfoxtail) | Growth inhibition rate (%) Rice (rice) | Growth inhibition rate (%) Barnyardgrass [3] | Growth inhibition rate (%) redroot pigweed [4] | Growth inhibition rate (%) Crabgrass (crabgrass) | Growth inhibition rate (%) Rice (rice (Oryza sativa L.)) | Growth inhibition rate (%) Prickly sida [5] | Growth inhibition rate (%) Velvetleaf [6] | Growth inhibition rate (%) Soybean (soybean) | Growth inhibition rate (%) Soybean [7]
CCOc1c(S(C)(=O)=O)ccc(C(=O)c2cnn(C)c2OC(=O)SCC)c1C [compound 36] | 50% | 60% | 0% | 100% | 50% | 98% | 0% | 10% | 100% | 100% | 100% | 80% | 100% | 100% | 100% | 70% | 100% | 100% | 30% | 
CCSC(=O)Oc1c(C(=O)c2ccc(S(C)(=O)=O)c(COC)c2C)cnn1C [compound 63] | 70% | 80% | 0% | 90% | 10% | 98% | 0% | 0% | 100% | 95% | 90% | 80% | 95% | 95% | 95% | 90% |  | 95% | 0% | 95%
CCOC(=O)c1c(S(C)(=O)=O)ccc(C(=O)c2cnn(CC)c2OC(=O)SC)c1C [compound 62] | 90% | 90% | 30% | 100% | 50% | 100% | 0% | 10% | 100% | 80% | 95% | 70% | 100% | 100% | 95% | 80% |  | 95% | 0% | 90%
CCSC(=O)Oc1c(C(=O)c2ccc(S(C)(=O)=O)c(CC(=O)OC)c2C)cnn1C [compound 64] | 30% | 60% | 0% | 80% | 0% |  | 0% | 0% | 65% | 90% | 50% | 70% | 100% | 80% | 95% | 70% | 60% | 85% | 0% | 
